Source: PubChem BioAssay AID248 (DTP/NCI, 2004)
Where “and” joins values, the source holds several entries; their conditions need not be identical. Equal entries are not always repeated. Toxic doses and inconclusive results are not listed. No stated cut-off is given here; in the data, active means T/C of 150% or more; inactive means T/C below 125%.

Test system: L1210 leukemia ip in BDF1 mice, survival T/C
Assay: NCI In Vivo Anticancer Drug Screen. Data for tumor model L1210 Leukemia (intraperitoneal) in B6D2F1 (BDF1) mice
Conditions: endpoint: mean survival time, higher = longer survival
How it was run: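 Read-out is survival time, reported as the treated-group measurement over the vehicle-control measurement.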

[1] = dose: 100.0 mg/kg/injection, schedule: Q01DX009 (ip), vehicle: Klucel (hydroxypropylcellulose) (HPC)
[2] = dose: 200.0 mg/kg/injection, schedule: Q01DX009 (ip), vehicle: Klucel (hydroxypropylcellulose) (HPC)
[3] = dose: 400.0 mg/kg/injection, schedule: Q01DX009 (ip), vehicle: Klucel (hydroxypropylcellulose) (HPC)
[4] = dose: 100.0 mg/kg/injection, schedule: Q01DX009 (ip), vehicle: saline with Tween-80
[5] = dose: 200.0 mg/kg/injection, schedule: Q01DX009 (ip), vehicle: saline with Tween-80
[6] = dose: 400.0 mg/kg/injection, schedule: Q01DX009 (ip), vehicle: saline with Tween-80
[7] = dose: 50.0 mg/kg/injection, schedule: Q04DX003 (ip), vehicle: saline
[8] = dose: 100.0 mg/kg/injection, schedule: Q04DX003 (ip), vehicle: saline
[9] = dose: 200.0 mg/kg/injection, schedule: Q04DX003 (ip), vehicle: saline
[10] = dose: 100.0 mg/kg/injection, schedule: Q01DX001 (ip), vehicle: saline with Tween-80
[11] = dose: 100.0 mg/kg/injection, schedule: Q04DX002 (ip), vehicle: saline with Tween-80
[12] = dose: 100.0 mg/kg/injection, schedule: Q04DX003 (ip), vehicle: saline with Tween-80
[13] = dose: 200.0 mg/kg/injection, schedule: Q04DX002 (ip), vehicle: saline with Tween-80
[14] = dose: 200.0 mg/kg/injection, schedule: Q04DX003 (ip), vehicle: saline with Tween-80
[15] = dose: 400.0 mg/kg/injection, schedule: Q04DX002 (ip), vehicle: saline with Tween-80
[16] = dose: 400.0 mg/kg/injection, schedule: Q04DX003 (ip), vehicle: saline with Tween-80
[17] = dose: 50.0 mg/kg/injection, schedule: Q01DX001 (ip), vehicle: saline
[18] = dose: 100.0 mg/kg/injection, schedule: Q01DX001 (ip), vehicle: saline
[19] = dose: 200.0 mg/kg/injection, schedule: Q01DX001 (ip), vehicle: saline
[20] = dose: 400.0 mg/kg/injection, schedule: Q01DX001 (ip), vehicle: saline
[21] = dose: 100.0 mg/kg/injection, schedule: Q01DX001 (ip), vehicle: Klucel (hydroxypropylcellulose) (HPC)
[22] = dose: 200.0 mg/kg/injection, schedule: Q01DX001 (ip), vehicle: Klucel (hydroxypropylcellulose) (HPC)
[23] = dose: 400.0 mg/kg/injection, schedule: Q01DX001 (ip), vehicle: Klucel (hydroxypropylcellulose) (HPC)

Measured: T/C

COc1ccc([N+](=O)[O-])cc1NC(=O)Nc1ccc(C(=O)OCC(C)C)cc1
inactive: [1] 100 % of control | [2] 100 % of control | [3] 95 % of control

O=[As](O)(CC(O)c1ccccc1)c1ccc(Cl)cc1 (stereo unspecified)
inactive: dose: 6.25 mg/kg/injection, schedule: Q01DX001 (ip), vehicle: saline with Tween-80 100 % of control | dose: 12.5 mg/kg/injection, schedule: Q01DX001 (ip), vehicle: saline with Tween-80 109 % of control | dose: 25.0 mg/kg/injection, schedule: Q01DX001 (ip), vehicle: saline with Tween-80 105 % of control and 116 % of control

O=S(=O)(Nc1cc(Cl)ccc1Cl)c1ccc(Cl)cc1
inactive: [4] 92 % of control | [5] 102 % of control | [6] 92 % of control

OCc1cc2ccccc2cc1O
inactive: [1] 97 % of control | dose: 100.0 mg/kg/injection, schedule: Q04DX003 (ip), vehicle: Klucel (hydroxypropylcellulose) (HPC) 97 % of control | [2] 106 % of control | dose: 200.0 mg/kg/injection, schedule: Q04DX003 (ip), vehicle: Klucel (hydroxypropylcellulose) (HPC) 94 % of control | [3] 108 % of control | dose: 400.0 mg/kg/injection, schedule: Q04DX003 (ip), vehicle: Klucel (hydroxypropylcellulose) (HPC) 89 % of control

CCCCCCC(=O)/C=C/c1ccc(Cl)cc1Cl
inactive: dose: 100.0 mg/kg/injection, schedule: Q01DX009 (ip), vehicle: acetone 95 % of control | dose: 100.0 mg/kg/injection, schedule: Q04DX003 (ip), vehicle: acetone 86 % of control | dose: 200.0 mg/kg/injection, schedule: Q01DX009 (ip), vehicle: acetone 90 % of control | dose: 200.0 mg/kg/injection, schedule: Q04DX003 (ip), vehicle: acetone 91 % of control | dose: 400.0 mg/kg/injection, schedule: Q01DX009 (ip), vehicle: acetone 95 % of control | dose: 400.0 mg/kg/injection, schedule: Q04DX003 (ip), vehicle: acetone 93 % of control

CCC1(O)C(=O)OCc2c1ccnc2Cl (stereo unspecified)
inactive: [7] 105 % of control | [8] 116 % of control | [9] 103 % of control

Cc1ccc(N=Nc2ccc(C)cc2NC(=O)c2ccc(Cl)cc2)cc1
inactive: dose: 50.0 mg/kg/injection, schedule: Q01DX001 (ip), vehicle: saline with Tween-80 100 % of control | dose: 50.0 mg/kg/injection, schedule: Q04DX003 (ip), vehicle: saline with Tween-80 90 % of control | [10] 90 % of control | [4] 93 % of control and 94 % of control | [11] 94 % of control and 90 % of control | [12] 93 % of control | [5] 95 % of control and 97 % of control | [13] 93 % of control and 91 % of control | [14] 93 % of control | [6] 90 % of control and 92 % of control | [15] 87 % of control and 89 % of control | [16] 89 % of control and 90 % of control

COCCN=C(N)C(N)=NCCOC
inactive: [12] 102 % of control | [8] 97 % of control | [14] 102 % of control | [9] 100 % of control | [16] 95 % of control | dose: 400.0 mg/kg/injection, schedule: Q04DX003 (ip), vehicle: saline 88 % of control

O=C1OC(=O)c2c1ccc1ccc(Cl)cc21
inactive: [12] 94 % of control | [14] 94 % of control | [16] 102 % of control

CCCCCCCCCCCCCS
inactive: dose: 40.0 mg/kg/injection, schedule: Q01DX Z (ip), vehicle: saline 108 % of control | dose: 50.0 mg/kg/injection, schedule: Q04DX003 (ip), vehicle: carboxymethylcellulose (CMC) 100 % of control | dose: 60.0 mg/kg/injection, schedule: Q01DX Z (ip), vehicle: saline 120 % of control | dose: 90.0 mg/kg/injection, schedule: Q01DX Z (ip), vehicle: saline 111 % of control | dose: 100.0 mg/kg/injection, schedule: Q01DX001 (ip), vehicle: carboxymethylcellulose (CMC) 110 % of control | dose: 100.0 mg/kg/injection, schedule: Q04DX003 (ip), vehicle: carboxymethylcellulose (CMC) 105 % of control | dose: 135.0 mg/kg/injection, schedule: Q01DX Z (ip), vehicle: saline 120 % of control | dose: 200.0 mg/kg/injection, schedule: Q01DX001 (ip), vehicle: carboxymethylcellulose (CMC) 101 % of control | dose: 200.0 mg/kg/injection, schedule: Q01DX Z (ip), vehicle: saline 108 % of control | dose: 200.0 mg/kg/injection, schedule: Q04DX003 (ip), vehicle: carboxymethylcellulose (CMC) 100 % of control | dose: 202.5 mg/kg/injection, schedule: Q01DX Z (ip), vehicle: saline 117 % of control | dose: 400.0 mg/kg/injection, schedule: Q01DX001 (ip), vehicle: carboxymethylcellulose (CMC) 116 % of control | dose: 450.0 mg/kg/injection, schedule: Q01DX Z (ip), vehicle: saline 108 % of control | dose: 675.0 mg/kg/injection, schedule: Q01DX Z (ip), vehicle: saline 90 % of control

N=C(CNC(=O)OCc1ccccc1)N1CCCC1C(=O)O (stereo unspecified)
inactive: [12] 100 % of control | [14] 101 % of control | [16] 101 % of control

CCCCCCC(C)(O)CCCCOC(C)OCC (stereo unspecified)
inactive: dose: 50.0 mg/kg/injection, schedule: Q04DX002 (ip), vehicle: saline with Tween-80 95 % of control | [11] 95 % of control | [13] 88 % of control | [15] 95 % of control

CN(C)CCCN=Cc1cc([N+](=O)[O-])ccc1O.CN(C)CCCN=Cc1cc([N+](=O)[O-])ccc1O.[Ni+2]
inactive: [12] 91 % of control

Cc1ccc(N=Nc2c(C)nc(N)nc2C)cc1
inactive: dose: 75.0 mg/kg/injection, schedule: Q01DX001 (ip), vehicle: saline 97 % of control | dose: 150.0 mg/kg/injection, schedule: Q01DX001 (ip), vehicle: saline 91 % of control

O=C(CCCC(=O)N/N=C/c1ccc(-c2ccccc2)cc1)N/N=C\c1ccc(-c2ccccc2)cc1
inactive: [17] 96 % of control | [18] 98 % of control | [19] 96 % of control | [20] 96 % of control

COc1cc(NCCCNc2c3ccc(Cl)cc3nc3ccc(OC)cc23)c2ncccc2c1
inactive: [1] 100 % of control

COc1ccc(C(=O)/C=C\c2ccc(OC)cc2O)cc1
inactive: [17] 100 % of control | [18] 103 % of control | [19] 97 % of control | [20] 103 % of control

CCCCCCCCN(C=O)CCCCCCCC
inactive: [11] 98 % of control

OCc1c2ccccc2cc2ccccc12
inactive: [10] 93 % of control | dose: 200.0 mg/kg/injection, schedule: Q01DX001 (ip), vehicle: saline with Tween-80 87 % of control | dose: 400.0 mg/kg/injection, schedule: Q01DX001 (ip), vehicle: saline with Tween-80 93 % of control

CC(C)=CCc1cc(OC(=O)OCc2ccccc2)c2ccccc2c1O
inactive: [21] 96 % of control | [22] 93 % of control | [23] 101 % of control

Nc1nc2nc(CC(=O)C(=O)O)c(=O)[nH]c2c(=O)[nH]1
inactive: dose: 3.12 mg/kg/injection, schedule: Q01DX009 (ip), vehicle: saline with Tween-80 97 % of control | dose: 6.25 mg/kg/injection, schedule: Q01DX009 (ip), vehicle: saline with Tween-80 101 % of control | dose: 12.5 mg/kg/injection, schedule: Q01DX009 (ip), vehicle: saline with Tween-80 103 % of control | dose: 12.5 mg/kg/injection, schedule: Q04DX003 (ip), vehicle: saline 105 % of control | dose: 25.0 mg/kg/injection, schedule: Q04DX003 (ip), vehicle: saline 111 % of control | dose: 50.0 mg/kg/injection, schedule: Q01DX009 (ip), vehicle: saline 97 % of control | [7] 104 % of control | [8] 106 % of control

Cc1n(C)c(=O)c2ccccc2[n+]1C
inactive: [21] 106 % of control | [22] 87 % of control | [23] 97 % of control
